Test results: patent US9889117B2, “Method for treating and/or delaying the degeneration of Purkinje cells” (EVERFRONT BIOTECH INC., priority 2014, dated 2018)

Key:
[1] = test system: MJD84.2 transgenic mice (SCA3 mice); test: Rotarod test in SCA3 mice; format: in vivo; details: BP 100 or 500 mg/kg/bid, ligustilide 100 mg/kg/bid, 4 to 40 rpm within 300 seconds, FIG. 6
Procedure: (§1) MJD84.2 transgenic mice (i.e., the mice being transfected with ATXN3 gene with human 84 CAG repeat sequence, hereinafter referred to as “SCA3 mice”) were used in this experiment. MJD84.2 transgenic mice were an animal model used for studying spinal cerebellar atrophy.
(§2) The MJD84.2 transgenic mice of two weeks of age were randomly divided into five groups, each group had six mice. The mice were treated with the following conditions for two weeks: (1) untreated group; (2) treated with olive oil (i.e., only treated with the adjuvant); (3) treated with 100 mg/kg/bid (bis in die) of BP; (4) treated with 500 mg/kg/bid of BP; (5) treated with 100 mg/kg/bid of ligustilide. The wild type mice (WT) was used as a control group. After 2 weeks, local motor and rotarod test were conducted.
Rotarod test was performed to test the balance and grip ability of mice. The mice were given practice two weeks before the first behavioral test. The experiment was conducted using an IITC rotarod (IITC Life Science Inc, USA).
10-week-old mice were tested on a rotarod once every three weeks. The test condition was set as a linear acceleration from 4 to 40 rpm within 300 seconds. The time (sec) that the mice fell from the rotarod (i.e., latency to fall) was recorded. […] After the rotarod test, the body weight of the mice were recorded. […]

[2] = test system: MJD84.2 transgenic mice (SCA3 mice); test: Local motor test in SCA3 mice; format: in vivo; details: BP 100 or 500 mg/kg/bid, ligustilide 100 mg/kg/bid; for total moving distance vs untreated group and group fed with olive oil: FIG. 5A; for moving times (moving number) vs untreated group and group fed with olive oil: FIG. 5B; for moving time vs untreated group and group fed with olive oil: FIG. 5C
Procedure: as §1, §2
Local motor test was performed to test the exercise ability of mice. 10-week-old mice were tested on rotarod once every three weeks. Then, the mice were placed in a transparent acrylic box 2 hours and were free to move. A behavioral test was conducted for 1 hour by using VersaMax 420 (AccuscanInstrumentsInc, USA), and the data was analyzed by statistical methods.

calbindin = test: Western blotting of cerebellum proteins, anti-calbindin antibody; format: in vivo; details: cerebellum tissue of SCA3 mice; BP 100 or 500 mg/kg/bid, ligustilide 100 mg/kg/bid; FIG. 8
Procedure: (§3) The MJD84.2 transgenic mice (i.e., the mice with modified ATXN3 gene) of eight weeks of age were randomly divided into five groups, with six mice in each group. The mice were treated with the following conditions: (1) untreated group; (2) treated with olive oil; (3) treated with 100 mg/kg/bid of BP; (4) treated with 500 mg/kg/bid of BP; (5) treated with 100 mg/kg/bid of ligustilide. Then, the mice were sacrificed at the age of 20 weeks and 24 weeks. Cerebellar slices staining and tissue protein extraction were performed (see Example 5). Whole brain tissue of the mice was fixed overnight with 3.7% formalin and embedded in paraffin. The samples were sectioned (4 μm) by using a Quanto kit (Thermo, USA) and mounted on a microscope slide.
(§4) The cerebellums of the mice sacrificed in example 4 were separated from the whole brain, and the proteins in the cerebellums were extracted. The purified proteins were analyzed by Western blotting assay using an anti-ubiquitin antibody and an anti-calbindin antibody, respectively, to determine the changes in the protein expression level of ubiquitin and calbindin in the cerebellum tissue of SCA3 mice in each group. β-actin was used as an internal control group.
It has been known that calbindin is a marker of Purkinje cells.

Purkinje cells = test: Immunohistochemistry staining of cerebellar slices; format: in vivo; details: cerebellum slices of SCA3 mice; BP 100 or 500 mg/kg/bid, ligustilide 100 mg/kg/bid; sacrificed at 20 and 24 weeks; FIG. 7
Procedure: as §3

[3] = test system: GFP-ATXN3 protein (Ataxin3Q84); test: In vitro cell test: GFP-ATXN3 fluorescence in transfected cells; format: cell-based, human; details: 5 μg/ml, 24 hours; HEK 293T or neural stem cells transfected with pEGFP-C1-Ataxin3Q84; FIG. 1
Procedure: In this experiment, the effects of BP and ligustilide on the protein expression level of SCA3 protein were analyzed. First, pEGFP-C1-Ataxin3Q84 plasmid (i.e., a plasmid comprising Ataxin gene with abnormal CAG repeat number (84Q)) containing green fluorescent protein or pEGFP-C1-Ataxin3Q28 plasmid (i.e., a plasmid comprising Ataxin gene with normal CAG repeat number (28Q)) (Addgene company, U.S.) was transfected into human embryonic kidney (HEK) cells 293T (Bioresource Collection and Research Center, Taiwan) or neural stem cells (NSC). The cells were then cultured in a DMEM medium (Dulbecco's modified Eagle's medium, Thermo) containing 10% fetal bovine serum (Gibco), and incubated in an incubator with 5% CO2 at 37° C. Then, the cells were treated with 5 μg/ml BP (A10353, purchased from Alfa Aesar, U.S.; with a purity of 95%) or ligustilide (5393-015M1, purchased from Pharmaron, China) for 24 hours. The protein aggregation of GFP-ATXN3 protein in the cells of each group was observed by a fluorescence microscopy. Wild type cells and cells transfected with green fluorescent protein (GFP) were used as the control group.

[4] = test system: motor neurons of zebrafishes treated with ATXN3 MO; test: Zebrafish confocal microscopy test of motor neurons; format: in vivo; details: 250 mg/kg BP with ATXN3 MO, after 48 hours; FIG. 4
Procedure: Zebrafish eggs were micro-injected with 300 nM/μl ATXN3 MO, 250 mg/kgBP, or ATXN3 MO in combination with 250 mg/kgBP, 125 mg/kg BP or 62.5 mg/kgBP. After 48 hours, the zebrafishes were enclosed in glass slides. The motor neurons in the living body were recorded by a confocal fluorescence microscopy.
The data shown in FIG. 4 was obtained by 100%*(the number of the survived zebrafishes/total number of the zebrafishes).

ubiquitin = test: Western blotting of cerebellum proteins, anti-ubiquitin antibody; format: in vivo; details: cerebellum tissue of SCA3 mice treated with BP; FIG. 9
Procedure: as §3
as §4, with “control group. […]” for “control group.”

zebrafish = test: Zebrafish safe dose test (survival rate); format: in vivo; details: for survival rate of the zebrafishes: after 48 hours, 28.5° C., FIG. 2
Procedure: In this experiment, the zebrafishes that were used as the animal models in the experimental group were Tg (HuC:GFP), which is characterized by its primary sensory neurons (Rohon-Beard cells) that can produce fluorescence. The zebrafishes used in the control group were wild type zebrafishes. All of the zebrafishes were provided by TZCAS (Taiwan Zebrafish Core Facility at Academia Sinica, Taiwan) and TZCF (Taiwan Zebrafish Core Facility, Taiwan). First, the toxicity of BP to zebrafish was tested by injecting different dose of BP to zebrafishes. The zebrafishes were then kept at 28.5° C. After 48 hours, the survival rate of the zebrafishes was observed.
The survival rate of the zebrafishes treated with 500 mg/kg BP was 50%, and both of the survival rates of the zebrafishes treated with 250 mg/kg and 50 mg/kg BP were greater than 75%.

[5] = test system: zebrafishes injected with ATXN3 MO; test: Zebrafish behavioral test (tail stimulation); format: in vivo; details: FIG. 3
Procedure: Morpholinos (MO) was produced by modifying the structure of a fragment of DNA, which can block protein translation process of mRNA to inhibit the expression of a target protein. The ATXN3 MO used in this experiment has a sequence of 5′-[…]-3′ (SEQ ID NO. 1), and the standard used in the control group is 5′-[…]-3′ (SEQ ID NO. 2) (hereinafter referred to as “Ct MO”). Before injection, the MO was dissolved in ddH2O, stored at −20° C. for used. Zebrafish eggs were micro-injected within about one hour after birth. After 21 to 48 hours post fertilization (hpf), the zebrafish eggs were micro-injected with ATXN3 MO or ATXN3 MO in combination with 250 mg/kg BP, 125 mg/kg BP or 62.5 mg/kg BP. After 48 hours, the fish tails were stimulated by tips, and the number of stimulation causing movement of the fish tails was measured.

Row | Structure (SMILES) | balance and grip ability (rotarod, latency to fall) vs untreated group and group fed with olive oil [1] | total moving distance vs untreated group and group fed with olive oil [2] | moving times (moving number) vs untreated group and group fed with olive oil [2] | moving time vs untreated group and group fed with olive oil [2] | protein expression level of calbindin vs untreated group and group fed with olive oil (calbindin) | number of the Purkinje cells vs untreated group and group fed with olive oil (Purkinje cells) | fluorescent signal of Ataxin3Q84 in the cells vs untreated groups [3] | number of motor neurons [4] | content of the ubiquitination proteins vs untreated group and group fed with olive oil (ubiquitin) | survival rate of the zebrafishes (zebrafish; 50 mg/kg BP injected) | survival rate of the zebrafishes (zebrafish; 250 mg/kg BP injected) | survival rate of the zebrafishes (zebrafish; 500 mg/kg BP injected) [%] | safe dose for zebrafish (zebrafish; from survival rate after 48 hours) | amount of stimulation causing the movement of fish tails ([5]; ATXN3 MO in combination with 250, 125 or 62.5 mg/kg BP, after 48 hours, vs ATXN3 MO alone) | restoring of behavioral ability of the diseased zebrafishes, comparison of doses ([5]; BP of 250 mg/kg, compared with 125 and 62.5 mg/kg)
1 | CCC/C=C1\OC(=O)C2=C1CCC=C2 [ligustilide, 3-butylidene-4,5-dihydrophthalide] | better | higher | higher | higher | significantly higher | significantly higher | significantly lower |  |  |  |  |  |  |  | 
2 | CCCC=C1OC(=O)c2ccccc21 [BP, n-butylidenephthalide] | better | higher | higher | higher | significantly higher | significantly higher | significantly lower | can maintain the number of motor neurons | significantly higher | greater than 75% | greater than 75% | 50 | lower than 250 mg/kg | restored (i.e., decreased) | the most obvious effect
